The source of these data is patent US5010102A, “Anti-ulcer 5-(2-substituted ethenyl)-3(2H)-furanones” (American Home Products Corp., priority 1990, dated 1991).

This experiment deals with gastric mucosal lesions produced by ethanol. In words: prevention of gastric mucosal lesions produced by ethanol in rats (cytoprotective/anti-ulcer, Robert et al.). The format is in vivo. The following applies: Rattus norvegicus, oral, usually 1 hour before ethanol, male Sprague-Dawley rats; for inhibition in vivo at 25 mg/kg / inhibition in vivo at 10 mg/kg: read-out: percentage inhibition of lesion formation; for ED50: calculated from a series of dosage levels, read-out: ED50 (dose at which half the animals did not develop lesions significantly different from the control group). On the procedure:
The rats were placed in individual cages and denied water 2 hours or more before testing. At a fixed time before administration of ethanol (usually 1 hour), the animals were orally administered either the test compound or its water-carboxymethylcellulose vehicle. Ethanol was then administered orally at a dose of 1 mL per animal. One hour after administration of the ethanol, the animals were sacrificed and their stomachs removed, cut along the greater curvature and flushed clean with tap water. Macroscopic lesions on the gastric mucosa were graded from 0-3 based upon the absence of lesions to the presence of lesions which approximate 6 millimeters in length. Comparison of the treated group with the control group permits expression of the results as percentage inhibition of lesion formation as a direct measure of cytoprotection. […] The results of these studies are given at the end of each example illustrating the preparation of the tested compound, supra, as the percent inhibition or ED50 where the latter value was determined.

With `COc1cc(/C=C/C2=CC(=O)C(C)(C)O2)cc(OC)c1OC` [Example 1, 2,2-Dimethyl-5-[2-(3,4,5-trimethoxyphenyl)ethenyl]-3(2H)-furanone], the inhibition in vivo at 25 mg/kg stood at 81%.

`CC1(C)OC(/C=C/c2ccc(F)cc2)=CC1=O` [Example 2, 2,2-Dimethyl-5-[2-(4-fluorophenyl)ethenyl]-3(2H)-furanone]: the ED50 (in general, the midpoint of the dose-response relation) was 11 mg/kg.

Turning to `CC1(C)OC(/C=C/c2ccc(F)cc2F)=CC1=O` [Example 3, 5-[2-(2,4-Difluorophenyl)ethenyl]-2,2-dimethyl-3(2H)-furanone], the inhibition in vivo at 25 mg/kg is 52%.

As for `CC1(C)OC(/C=C/c2ccc(F)c(F)c2)=CC1=O` [Example 4, 5-[2-(3,4-Difluorophenyl)ethenyl]-2,2-dimethyl-3(2H)-furanone], the inhibition in vivo at 25 mg/kg is 47%.

Turning to `CC1(C)OC(/C=C/c2ccc(Br)cc2)=CC1=O` [Example 5, (E)-2,2-Dimethyl-5-[2-(4-bromophenyl)ethenyl]-3(2H)-furanone], the inhibition in vivo at 25 mg/kg was 63%.

Regarding `CC1(C)OC(/C=C/c2ccc(Cl)cc2)=CC1=O` [Example 6, 2,2-Dimethyl-5-[2-(4-chlorophenyl)ethenyl]-3(2H)-furanone], the ED50 is 10.3 mg/kg.

In the case of `CC1(C)OC(/C=C/c2cc(Cl)cc(Cl)c2)=CC1=O` [Example 10, 5-[2-(3,5-Dichlorophenyl)ethenyl]-2,2-dimethyl-3(2H)-furanone], the ED50 is 9 mg/kg.

For the compound `CC1(C)OC(/C=C/c2ccc(C(F)(F)F)cc2)=CC1=O` [Example 11, 2,2-Dimethyl-5-[2-[4-(trifluoromethyl)phenyl]ethenyl]-3(2H)-furanone], the inhibition in vivo at 25 mg/kg was 30%.

Regarding `CSc1ccc(/C=C/C2=CC(=O)C(C)(C)O2)cc1` [Example 12, (E)-2,2-Dimethyl-5-[2-[4-(methylthio)phenyl]ethenyl]-3(2H)-furanone], the inhibition in vivo at 25 mg/kg worked out at 5%.

`CC1(C)OC(/C=C/c2ccc(S(C)(=O)=O)cc2)=CC1=O` [Example 13, 2,2-Dimethyl-5-[2-[4-(methylsulfonyl)phenyl]ethenyl]-3(2H)-furanone]: the inhibition in vivo at 25 mg/kg amounted to 56% and the ED50 was 10.6 mg/kg.

On to `CC1(C)OC(/C=C/c2ccc(C#N)cc2)=CC1=O` [Example 14, 4-[2-(2,3-Dihydro-2,2-dimethyl-3-oxo-5-furanyl)ethenyl]benzonitrile], for which the ED50 was 15 mg/kg.

`Cn1cccc1/C=C/C1=CC(=O)C(C)(C)O1` [Example 16, 2,2-Dimethyl-5-[2-(1-methyl-2-pyrrolyl)ethenyl]-3(2H)-furanone]: the inhibition in vivo at 10 mg/kg was 32%.

For the compound `CC1(C)OC(/C=C/c2ccccn2)=CC1=O` [Example 17, 2,2-Dimethyl-5-[2-(2-pyridinyl)ethenyl]-3(2H)-furanone], the ED50 was 9 mg/kg.

`CC1(C)OC(/C=C/c2ccncc2)=CC1=O` [Example 18, 2,2-Dimethyl-5-[2-(4-pyridinyl)ethenyl]-3(2H)-furanone]: the ED50 is 4 mg/kg.

On to `CC1(C)OC(/C=C/c2cccnc2)=CC1=O` [Example 19, 2,2-Dimethyl-5-[2-(3-pyridinyl)ethenyl]-3(2H)-furanone], for which the ED50 is 9.3 mg/kg.

`CC1(C)OC(/C=C/c2ccnc3ccccc23)=CC1=O` [Example 20, 5-[2-(4-Quinolinyl)ethenyl]-2,2-dimethyl-3(2H)-furanone]: the ED50 is 2.5 mg/kg.

`CC1(C)OC(/C=C/c2cnccn2)=CC1=O` [Example 21, 2,2-Dimethyl-5-[2-(2-pyrazinyl)ethenyl]-3(2H)-furanone]: the inhibition in vivo at 10 mg/kg worked out at 56%.

For the compound `CC1(C)OC(/C=C/c2ccsc2)=CC1=O` [Example 22, 2,2-Dimethyl-5-[2-(3-thienyl)ethenyl]-3(2H)-furanone], the ED50 is 4 mg/kg.

In the case of `CC1(C)OC(/C=C/c2cccs2)=CC1=O` [Example 23, 2,2-Dimethyl-5-[2-(2-thienyl)ethenyl]-3(2H)-furanone], the inhibition in vivo at 10 mg/kg came out at 1%.

For `CC1(C)OC(/C=C/c2cc3ccccc3s2)=CC1=O` [Example 24, 5-[2-(Benzo[b]thien-2-yl)ethenyl]-2,2-dimethyl-3(2H)-furanone], the inhibition in vivo at 10 mg/kg was 17%.

Consider `CC1(C)OC(/C=C/c2ccoc2)=CC1=O` [Example 25, 5-[2-(3-Furanyl)ethenyl]-2,2-dimethyl-3(2H)-furanone], for which the inhibition in vivo at 10 mg/kg came out at 35%.

Take `CC1(c2ccccc2)OC(/C=C/c2cccnc2)=CC1=O` (stereo not drawn) [Example 26, 2-Phenyl-2-methyl-5-[2-(3-pyridinyl)ethenyl]-3(2H)-furanone]: the ED50 is 5 mg/kg.

Consider `CC1(c2ccccc2)OC(/C=C/c2ccncc2)=CC1=O` (stereo not drawn) [Example 27, 2-Methyl-2-phenyl-5-[2-(4-pyridinyl)ethenyl]-3(2H)-furanone], for which the inhibition in vivo at 10 mg/kg was found to be 44%.

As for `CC1(c2ccccc2)OC(/C=C/c2ccccn2)=CC1=O` (stereo not drawn) [Example 28, 2-Methyl-2-phenyl-5-[2-(2-pyridinyl)ethenyl]-3(2H)-furanone], the ED50 was 6 mg/kg.

As to `CC1(c2ccccc2)OC(/C=C/c2ccc(C#N)cc2)=CC1=O` (stereo not drawn) [Example 29, 4-[2-[2,3-Dihydro-2-methyl-3-oxo-2-phenyl-5-furanyl]ethenyl]benzonitrile], the inhibition in vivo at 10 mg/kg came out at 4%.

Consider `CC1(c2ccc(F)cc2)OC(/C=C/c2ccc(C#N)cc2)=CC1=O` (stereo not drawn) [Example 31, 4-[2-[2,3-Dihydro-2-(4-fluorophenyl)-2-methyl-3-oxo-5-furanyl]ethenyl]benzonitrile], for which the inhibition in vivo at 10 mg/kg is 1%.

With `CC1(c2ccc(F)cc2)OC(/C=C/c2ccccn2)=CC1=O` (stereo not drawn) [Example 32, 2-Methyl-2-(4-fluorophenyl)-5-[2-(2-pyridinyl)ethenyl]-3(2H)-furanone], the inhibition in vivo at 10 mg/kg came out at 92% and the ED50 is 3.5 mg/kg.

Turning to `CC1(c2ccc(F)cc2)OC(/C=C/c2ccsc2)=CC1=O` (stereo not drawn) [Example 33, 2-(4-Fluorophenyl)-2-methyl-5-[2-(3-thienyl)ethenyl]-3(2H)-furanone], the inhibition in vivo at 10 mg/kg is 22%.
